Literature values in patent US20230312573A1, “NOVEL SALTS, CRYSTALS, AND CO-CRYSTALS” (INTRA-CELLULAR THERAPIES, INC., priority 2021, published 2023).

Assays:
[1] = tested on: muscarinic receptor
[2] = molecular target: T1, 5-HT2C receptor (Homo sapiens, UniProt P28335)
T1 sequence (P28335 33-458): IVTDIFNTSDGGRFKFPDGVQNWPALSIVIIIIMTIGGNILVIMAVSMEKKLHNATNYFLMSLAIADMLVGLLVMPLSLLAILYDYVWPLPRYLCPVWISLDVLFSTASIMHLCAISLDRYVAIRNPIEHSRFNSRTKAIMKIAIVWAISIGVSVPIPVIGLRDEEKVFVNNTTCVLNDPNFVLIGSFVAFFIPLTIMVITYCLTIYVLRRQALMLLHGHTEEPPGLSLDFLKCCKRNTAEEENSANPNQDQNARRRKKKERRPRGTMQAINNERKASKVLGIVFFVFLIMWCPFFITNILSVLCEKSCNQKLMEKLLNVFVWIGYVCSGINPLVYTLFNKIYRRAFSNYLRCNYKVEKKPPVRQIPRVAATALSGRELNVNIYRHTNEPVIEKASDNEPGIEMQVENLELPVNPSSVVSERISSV

[3] = molecular target: H1 histaminergic receptor (Homo sapiens, UniProt P35367)
Chain of H1 histaminergic receptor (P35367 whole entry): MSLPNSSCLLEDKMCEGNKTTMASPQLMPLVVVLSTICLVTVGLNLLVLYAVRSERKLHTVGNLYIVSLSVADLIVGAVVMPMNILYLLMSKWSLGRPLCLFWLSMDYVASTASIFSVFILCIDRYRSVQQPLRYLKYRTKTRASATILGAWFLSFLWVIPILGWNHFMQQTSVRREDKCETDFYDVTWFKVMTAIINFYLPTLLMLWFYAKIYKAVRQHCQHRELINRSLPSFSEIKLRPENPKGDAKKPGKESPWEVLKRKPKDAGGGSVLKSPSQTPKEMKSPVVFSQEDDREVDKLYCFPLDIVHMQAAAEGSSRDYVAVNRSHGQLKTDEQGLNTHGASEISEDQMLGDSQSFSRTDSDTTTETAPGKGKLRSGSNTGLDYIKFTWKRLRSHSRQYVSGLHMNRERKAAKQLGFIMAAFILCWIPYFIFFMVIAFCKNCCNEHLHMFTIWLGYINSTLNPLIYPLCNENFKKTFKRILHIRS

binding to muscarinic receptors [1]: negligible binding
binding to 5-HT2C receptors [2]: negligible binding
binding to H1 histaminergic receptors [3]: negligible binding
Structure (SMILES): CN1CCN2c3c(cccc31)[C@@H]1CN(CCCC(=O)c3ccc(F)cc3)CC[C@@H]12 [Lumateperone, 1-(4-fluoro-phenyl)-4-((6bR,10aS)-3-methyl-2,3,6b,9,10,10a-hexahydro-1H,7H-pyrido[3′,4′:4,5]pyrrolo[1,2,3-de]quinoxalin-8-yl)-butan-1-one]
